Laboratory results as given in publication PMC8950244, “New Alpha-Amylase Inhibitory Metabolites from Pericarps of Garcinia mangostana” (Life, 2022).

Target: T1, porcine pancreatic α-amylase (Sus scrofa, UniProt P00690)
T1 construct: gene AMY2
T1 sequence (P00690 16-511): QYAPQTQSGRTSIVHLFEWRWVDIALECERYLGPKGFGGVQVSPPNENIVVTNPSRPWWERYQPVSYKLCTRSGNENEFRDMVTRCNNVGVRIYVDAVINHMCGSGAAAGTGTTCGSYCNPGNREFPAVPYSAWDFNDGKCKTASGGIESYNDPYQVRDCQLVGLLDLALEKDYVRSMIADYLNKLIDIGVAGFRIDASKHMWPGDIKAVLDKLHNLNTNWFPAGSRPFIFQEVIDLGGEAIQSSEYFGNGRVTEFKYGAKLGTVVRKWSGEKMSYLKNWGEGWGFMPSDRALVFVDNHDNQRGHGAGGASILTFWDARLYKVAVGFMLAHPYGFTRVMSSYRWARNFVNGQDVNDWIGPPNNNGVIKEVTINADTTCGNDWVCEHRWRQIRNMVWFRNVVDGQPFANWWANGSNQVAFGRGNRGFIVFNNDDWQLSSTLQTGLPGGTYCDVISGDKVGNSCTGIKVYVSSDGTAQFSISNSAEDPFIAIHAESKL
Test: fluorescence DQ starch hydrolysis assay (EnzChek Ultra Amylase kit)
Type: biochemical

Row | Compound | IC50 [µM]
1 | CC(C)=CCc1c(O)cc2oc3c(/C=C\C(C)(C)O)c(O)c(O)c(CC=C(C)C)c3c(=O)c2c1O [compound 5, mangostanaxanthone VI] | 16.1
2 | O=C(c1cc(O)cc(O)c1O)c1c(O)cc(O)cc1O [compound 6, garcimangophenone A] | 12.2
3 | O=C(c1cc(O)ccc1O)c1c(O)cc(O)cc1O[C@@H]1O[C@H](CO)[C@@H](O)[C@H](O)[C@H]1O [compound 7, garcimangophenone B] | 9.3
